Results taken from ChEMBL document CHEMBL1201862, “PubChem BioAssay data set” (2004).
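Exposure lasted 48 hours, with cells grown in 96-well plates and compounds tested at five concentrations. Abbreviation: GI50, concentration required for 50% inhibition of growth.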 Activity calls are given as the source filed them. No stated cut-off is given here; in the data, active = GI50 up to about 1.1 µM and inactive = higher.

Tests used:
Experiment in all cases: NCI tumour cell line growth inhibition, 48 h
[1] = system: A498
[2] = system: A549
[3] = system: EKVX
[4] = system: HCT-15
[5] = system: Hs-578T
[6] = system: MDA-MB-231
[7] = system: NCI-H460
[8] = system: NCI/ADR-RES
[9] = system: OVCAR-5
[10] = system: OVCAR-8
[11] = system: RPMI-8226
[12] = system: SF-268
[13] = system: SF-539
[14] = system: SK-MEL-28
[15] = system: TK-10
[16] = system: UACC-257
[17] = system: UO-31
[18] = system: COLO 205
[19] = system: SNB-75

Measured: GI50

Cc1sc2nc(-c3cc([N+](=O)[O-])c(Cl)cc3Cl)c(/C=N/NC(=N)N)n2c1C
inactive: [1] 19.5 µM | [2] 22.9 µM | [3] 19.8 µM | [5] 16.7 µM | [6] 6.61 µM | [7] 6.34 µM | [8] 31.7 µM | [9] 32.2 µM | [10] 5.7 µM | [11] 4.5 µM | [12] 10.5 µM | [13] 30.5 µM | [14] 2.4 µM | [15] 13.9 µM | [16] 10 µM | [17] 11.4 µM
3.61 µM: [4]

N=C(N)C(/N=N\c1ccccc1)C(=N)N (stereo not given)
inactive: [1] 54.5 µM | [2] 49.9 µM | [18] 29.8 µM | [3] 38.8 µM | [5] 48.9 µM | [6] 15.3 µM | [7] 32.1 µM | [8] 60.4 µM | [9] 49.7 µM | [10] 95.5 µM | [11] 27.9 µM | [12] 59.6 µM | [13] 14.9 µM | [14] 49.1 µM | [15] 46.9 µM | [16] 33.7 µM | [17] 30.5 µM
49.8 µM: [4]

C=CCN(CC=C)Cn1c(=S)sc2ccccc21
45 µM: [4]
inactive: [2] > 100 µM | [18] 48.6 µM | [3] > 100 µM | [5] > 100 µM | [6] 54.3 µM | [7] 82.8 µM | [8] > 100 µM | [9] > 100 µM | [10] > 100 µM | [12] > 100 µM | [13] 55.6 µM | [14] 37.5 µM | [19] > 100 µM | [15] > 100 µM | [16] > 100 µM | [17] 38.8 µM

COc1cc2oc(=O)ccc2cc1C1OC(=O)C2OC21C (stereo not given)
inactive: [2] > 100 µM | [18] > 100 µM | [3] > 100 µM | [5] 54.6 µM | [6] > 100 µM | [7] > 100 µM | [8] > 100 µM | [9] > 100 µM | [10] > 100 µM | [11] > 100 µM | [12] > 100 µM | [13] > 100 µM | [14] > 100 µM | [19] > 100 µM | [15] > 100 µM | [16] > 100 µM | [17] 64.9 µM
> 100 µM: [4]

COc1cc2c(cc1OC)C(=O)N(c1ccc(OCCN3CCCC3)cc1)C2
> 100 µM: [4]
inactive: [1] > 100 µM | [2] > 100 µM | [18] > 100 µM | [3] > 100 µM | [5] > 100 µM | [6] > 100 µM | [7] > 100 µM | [8] > 100 µM | [9] > 100 µM | [10] > 100 µM | [11] > 100 µM | [12] > 100 µM | [13] > 100 µM | [14] > 100 µM | [15] > 100 µM | [16] > 100 µM

Cc1cc(C)n(C(C)(C(=O)Cc2ccccc2)n2nc(C)cc2C)n1
> 100 µM: [4]
inactive: [1] > 100 µM | [2] > 100 µM | [18] > 100 µM | [3] > 100 µM | [5] > 100 µM | [6] > 100 µM | [7] > 100 µM | [8] > 100 µM | [9] > 100 µM | [10] > 100 µM | [11] > 100 µM | [12] > 100 µM | [13] > 100 µM | [14] > 100 µM | [15] > 100 µM | [17] > 100 µM

Nc1cccc(Nc2nc3ccccc3nc2NS(=O)(=O)c2ccccc2)c1
inactive: [2] 33 µM | [18] 15.8 µM | [3] 43.9 µM | [5] 41.7 µM | [6] 14.8 µM | [7] 22.1 µM | [8] 27.3 µM | [9] 30.3 µM | [10] 30 µM | [11] 16.7 µM | [12] 55.2 µM | [13] 19.1 µM | [14] 18.3 µM | [19] 36.2 µM | [15] 42 µM | [16] 31.3 µM | [17] 16 µM
25.6 µM: [4]

COc1cc2c(/C=C3/C(=O)Nc4ccc(O)cc43)c(Cl)n(Cc3ccccc3)c2cc1C
1.27 µM: [4]
inactive: [3] 5.62 µM | [6] 6 µM | [9] 2.1 µM | [10] 1.43 µM | [14] 3.56 µM | [15] 3.36 µM | [17] 3.76 µM
active: [2] 0.975 µM | [18] 1.04 µM | [5] 0.354 µM | [7] 0.553 µM | [8] 0.574 µM | [11] 0.687 µM | [12] 0.678 µM | [13] 0.392 µM | [19] 0.979 µM | [16] 0.818 µM
